Consider two substances from patent US20130012443A1, “METHODS OF TREATMENT OF CENTRAL NERVOUS SYSTEM HEMORRHAGE USING PROTOPORPHYRIN IX-FE COMPOUNDS” (priority 2011, published 2013).

Entries after “also recorded” stand apart in the source; their conditions may differ.

The subject of one data set is heme oxygenase-1 (HO-1). Kind of data set: HO-1 expression in mouse brain by immunoblotting. It counts as in vivo. The following applies: 26 mg/kg i.p. for 1 or 2 days, v. saline; for HO-1 expression in cortex (CTX) / HO-1 expression in striatum (STR): 24 hours after last dose, FIG. 4. As to the method: Mice received 26 mg/kg hemin i.p for 1 or 2 days, or an equal volume of saline. Striatal HO-1 expression was assessed 24 hours after the last hemin dose. Actin levels provide a gel-loading control. *P<0.05 v. expression in saline-treated controls, n=4/conditon.
Mice received 26 mg/kg hemin or heme arginate i.p for 1 or 2 days, or an equal volume of saline. HO-1 expression was assessed 24 hours after last dose. Actin serves as a control.
The response elicited by protoporphyrin IX-Fe compounds was investigated by administering 26 mg/kg hemin, or an equal volume of saline for 1 or 2 days via intraperitoneal injection. Expression of heme oxygenase-1 (HO-1) in striatal cells was assessed 24 hours after the last hemin dose. Four mice were used for each experimental group. Actin was used as a gel-loading control. HO-1 expression was quantified by immunoblotting as previously described (Neuropharmacology 2011 60:423-431); band density was analyzed using Kodak 1D software (Kodak, Rochester, N.Y.) (FIG. 3).
The effect of protoporphyrin IX-Fe compounds on HO-1 expression in nervous tissue was further investigated using heme arginate and examining the response in the cortex in addition to the striatum. Mice received 26 mg/kg hemin or heme arginate for 1 or 2 days, or an equal volume of saline. All treatments were administered intraperitoneally. HO-1 expression was quantified by immunoblotting as previously described (Neuropharmacology 2011 60:423-431).

The subject of data set [1] is mouse model of intracerebral hemorrhage (ICH). Kind of data set: Evan's blue leakage (blood-brain barrier disruption) after ICH induced by collagenase injection. It counts as in vivo, mice. To be noted: 26 mg/kg 1 or 3 hours after collagenase and again 24 h later, v. vehicle.
A further data set deals with HO-1. To be noted: low doses; cited from earlier work.
The test system of data set [2] is mouse model of intracerebral hemorrhage (ICH). Kind of data set: Evan's blue leakage (blood-brain barrier disruption) after ICH induced by striatal autologous blood injection. It counts as in vivo, mice. The protocol:
Mice were treated with 26 mg/kg hemin i.p. 1 hour later, as a one-time dose, or repeated in 24 hours; controls received vehicle i.p. only. Evan's blue leakage into the striatal parenchyma, a marker of blood-brain barrier disruption, was quantified at 3 days. […] Sham mice received anesthesia and needle trauma only. *P<0.05, **P<0.01, hemin treated v. vehicle-treated controls.
The effect of protoporphyrin IX-Fe compounds on subsequent exposure of nervous tissue to toxic doses of hemin was investigated. A mouse model of intracerebral hemorrhage (ICH) was used. ICH was induced in mice (6-7/condition, 9-10 weeks old) by injecting 25 μl autologous blood (FIG. 1A) into the right striatum. One hour after hemorrhage induction, mice were treated with (a) hemin at 26 mg/kg as a one-time dose, (b) hemin at 26 mg/kg at 1 hour after induction and then repeated at 25 hours after induction, or (c) sterile saline solution only. […] Mice were then treated with vehicle or hemin 1 hour later, with repeated dose 24 hours later. All treatments were administered via intraperitoneal injection. Three days after hemorrhage induction, brains were harvested after Evans blue injection, and slices were examined for Evan's blue fluorescence. […] Evan's blue leakage into the striatal parenchyma was quantified as a marker of blood-brain barrier disruption (FIGS. 1A-1B).

In another data set the test system is striatal cells. The data set can be described thus: Striatal cell viability by MTT assay after ICH. It counts as in vivo, mice. The following applies: v. vehicle. The protocol:
Intracerebral hemorrhage was modeled in 2-3 month old mice (5-6/condition) by striatal injection of autologous blood (25 μl) or collagenase (0.014 units), followed 1 or 3 hours later by 4 mg/kg hemin i.p. (repeated 24 h later) or vehicle. Five days after ICH, striatal cell viability was quantified by MTT assay. *P<0.05, **P<0.01, hemin treated v. vehicle-treated controls.
Whether protoporphyrin IX-Fe compounds could reduce hemorrhage-induced cell death in nervous tissues was investigated using the same mouse model of ICH. Intracerebral hemorrhage was modeled in 2-3 month old mice (5-6/condition) by striatal injection of autologous blood (25 μl) or collagenase (0.014 units), followed 1 or 3 hours later by 4 mg/kg hemin i.p. (repeated 24 h later) or vehicle. Five days after ICH, striatal cell viability was quantified by MTT assay (Chen et al., J Neurosurg 2011 114:1159-67) after striatal cell dissociation (FIG. 2). ICH was also modeled by striatal injection of […] autologous blood, followed by hemin (26 mg/kg) or vehicle treatment at 3 and 27 hours after ICH.

For data set [3] the following is noted: bound to albumin; cited from earlier work.

heme arginate: in the data set on heme oxygenase-1 (HO-1), the “HO-1 expression in cortex (CTX)” value was “increases HO-1 expression” and the “HO-1 expression in striatum (STR)” value is “increases HO-1 expression”.
As for “chloride salt of protoporphyrin IX-Fe^3+ [hemin]”, the “Evan's blue leakage into the striatal parenchyma, a marker of blood-brain barrier disruption” value in data set [1] was “decreases blood-brain barrier disruption”. Also, the “HO-1 expression in cultured cells” value with HO-1 was “could induce HO-1 expression”. Also, in data set [2] (striatal autologous blood injection, 26 mg/kg i.p. 1 hour later, one-time dose or repeated in 24 hours, quantified at 3 days, v. vehicle, 26 mg/kg), the “Evan's blue leakage into the striatal parenchyma, a marker of blood-brain barrier disruption” value is “attenuated blood-brain barrier disruption following simulated hemorrhage in a dose-dependent manner; also recorded: decreases blood-brain barrier disruption”. For the same substance, in data set [2] (three days after hemorrhage induction, DsRed filter, data not shown), the “Evan's blue fluorescence in brain slices” value was “Reduced fluorescence”. Also, the “striatal cell viability (MTT assay)” value in the data set with striatal cells (autologous blood (25 μl) or collagenase (0.014 units), 4 mg/kg i.p. 1 or 3 hours later, repeated 24 h later, five days after ICH, 4 mg/kg) is “increased striatal cell viability; also recorded: increases peri-hematomal cell viability”. In addition, the “MTT staining intensity / tissue viability” value with striatal cells (autologous blood, 26 mg/kg at 3 and 27 hours after ICH, data not shown) is listed as “increased tissue viability”. In the data set on heme oxygenase-1 (HO-1), the “HO-1 expression in cortex (CTX)” value is recorded as “increases HO-1 expression” and the “HO-1 expression in striatum (STR)” value is “increases HO-1 expression”. Further, the “Striatal HO-1 expression” value with heme oxygenase-1 (HO-1) (24 hours after the last dose, FIG. 3) is recorded as “increased expression of HO-1; also recorded: increases expression of the protective enzyme heme oxygenase-1 (HO-1)”. In addition, in data set [3], the “blood vessel inflammation and damage (phlebitis)” value was “less blood vessel inflammation and damage (phlebitis)”; the stability result is “more stable”.
